Assay results from patent US20240408169A1 (priority 2023, published 2024).
Like-named read-outs stand apart in the source and are kept apart here. *1 amine or outer side, *2 acyl side, *3 side chain or, on linkers, in order; H or OH if unused. Where a SMILES comes first, the peptide text is derived from it. Bridges are numbered along the chain shown (N, C = ends). [ ]: non-standard residue; d: D form. The star is where a group is joined. X47 = C[C@@H]1CN(c2ccc(-c3ccc(Cl)cc3C[C@@H](C(=O)[*:2])N(C)[*:1])cc2)C[C@H](C)N1C; X34 = CN1CC(N2CCN(c3ccc(-c4ccc(Cl)cc4C[C@@H](C(=O)[*:2])N(C)[*:1])cc3)CC2)C1; NMePhe(2-(4-MorPh),5-Cl) = CN[C@@H](Cc1cc(Cl)ccc1-c1ccc(N2CCOCC2)cc1)C(=O)O; X3 = COCCOCCN1CCN(c2ccc(-c3ccc(Cl)cc3C[C@@H](C(=O)[*:2])N(C)[*:1])cc2)CC1; X70 = CN1CCC[C@@H](c2ccc(-c3ccc(Cl)cc3C[C@@H](C(=O)[*:2])N(C)[*:1])cc2)C1; X91 = COc1cc(-c2ccc(Cl)cc2C[C@@H](C(=O)[*:2])N(C)[*:1])ccc1N1CCOCC1; X116 = CN([C@@H](Cc1cc(Cl)ccc1-c1cnc2c(c1)ncn2C)C(=O)[*:2])[*:1]; X49 = CN1CCc2ccc(-c3ccc(Cl)cc3C[C@@H](C(=O)[*:2])N(C)[*:1])cc2C1; NMehhhLys(Me) = CN([C@@H](CCCCCCCN(C)[*:3])C(=O)[*:2])[*:1]; X44 = Cc1nnc(-c2ccc(Cl)cc2C[C@@H](C(=O)[*:2])N(C)[*:1])o1; X109 = CN([C@@H](Cc1cc(Cl)ccc1-c1ccncc1)C(=O)[*:2])[*:1]; NMe(hhhLys) = CN([C@@H](CCCCCCCN[*:3])C(=O)[*:2])[*:1]; X33 = CN([C@@H](Cc1cc(Cl)cc2c1OCCO2)C(=O)[*:2])[*:1]; Cyclobutanecarbonyl(1-CF3) = O=C(C1(C(F)(F)F)CCC1)*; cBuCO(3,3-F2-1-CF3) = O=C(C1(C(F)(F)F)CC(F)(F)C1)*; X25 = CCOc1ncc(Cl)cc1C[C@@H](C(=O)[*:2])N(C)[*:1]; Pro(trans-4-F) = O=C(O)[C@@H]1C[C@@H](F)CN1; Gly(cPr) = N[C@H](C(=O)O)C1CC1; X77 = CC(F)(C(=O)*)C(F)(F)F; X20 = O=C(C1(Cl)CC1)*

Tests used:
[1] = target: T1, CyclinA2/CDK2 (Homo sapiens, UniProt P20248); test: Fluorescence Polarization (FP) competitive binding assay, Cyclin A2/Cdk2;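 also: plates equilibrated two hours at room temperature before polarization reading, IC50 fitted from eight-concentration compound titration curves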
T1 construct: purchased CRELUX Protein Services

[2] = target: T2, CyclinB1/CDK1 (Homo sapiens, UniProt P14635); test: Fluorescence Polarization (FP) competitive binding assay, Cyclin B1/Cdk1;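 also: fluorescence polarization read after equilibration at room temperature, with IC50 taken from serially diluted dose-response curves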
T2 construct: purchased Eurofins, discovery 14-450

[3] = target: T3, CyclinE1/CDK2 (Homo sapiens, UniProt P24864); test: Fluorescence Polarization (FP) competitive binding assay, Cyclin E1/Cdk2;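 also: readings taken after two-hour equilibration at room temperature in HEPES buffer with NaCl, DTT, NP-40 and BSA, IC50 fitted from eight-concentration serial dilution series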
T3 construct: purchased Eurofins, discovery 14-475

[4] = test system: WI-38 cells; test: MTT proliferation assay, WI-38; type: cell-based; settings: 3 days compound exposure, 1:3 serial dilution starting at 10 μM;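 also: Eight- or ten-point dilution series, with exposure length chosen to span about three to four cell doublings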
[5] = test system: NCI-H1048 cells; test: MTT proliferation assay, NCI-H1048; type: cell-based; settings: 5 days compound exposure, 1:3 serial dilution starting at 10 μM;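 also: Dose-response in 96-well plates over 8 or 10 concentration points, with exposure spanning 3-4 cell doublings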
[6] = test system: OVCAR3 cells; test: MTT proliferation assay, OVCAR3; type: cell-based; settings: 5 days compound exposure, 1:3 serial dilution starting at 10 μM;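 also: compound given as an 8- or 10-point series, one day after plating, with exposure covering roughly 3-4 cell doublings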
[7] = 8 nM Cyclin A2/Cdk2, 2 nM FAM probe, average of 2-3 independent experiments, read-out: Cyclin A FP IC50
[8] = 10 nM Cyclin B1/Cdk1, 2 nM FAM probe; average of 2-3 independent experiments; read-out: Cyclin B FP IC50
[9] = 10 nM Cyclin E1/Cdk2, 2 nM FAM probe, average of 2-3 independent experiments, read-out: Cyclin E FP IC50
[10] = read-out: Cyclin B FP IC50; 10 nM Cyclin B1/Cdk1, 2 nM FAM probe; average of 2-3 independent experiments

Row | SMILES | IC50 [1, 7] [nM] | IC50 [2, 8] [nM] | IC50 [3, 9] [nM] | GI50 [4] [nM] | GI50 [5] [nM] | GI50 [6] [nM] | IC50 [1] [nM] | IC50 [2, 10] [nM] | IC50 [3] [nM]
1 | CC(C)C[C@@H]1NC(=O)[C@@H](N(C)C(=O)[C@@H](NC(=O)[C@@H]2C[C@@H](F)CN2C(=O)C2(C(F)(F)F)CC(F)(F)C2)C2CC2)CCCCCCCN(C)C(=O)[C@H](Cc2cc(Cl)ccc2-c2ccncc2)N(C)C1=O [Example 192] ({cBuCO(3,3-F2-1-CF3)}-[Pro(trans-4-F)][Gly(cPr)][NMehhhLys(Me)]L[X109]; lactam 3-C) | 20 | 20 | 1140 | 3510 | 20 | 20 |  |  | 
2 | CC(C)C[C@@H]1NC(=O)[C@@H](N(C)C(=O)[C@@H](NC(=O)[C@@H]2C[C@@H](F)CN2C(=O)C2(C(F)(F)F)CC(F)(F)C2)C2CC2)CCCCCCCN(C)C(=O)[C@H](Cc2cc(Cl)cc3c2OCCO3)N(C)C1=O [Example 321] ({cBuCO(3,3-F2-1-CF3)}-[Pro(trans-4-F)][Gly(cPr)][NMehhhLys(Me)]L[X33]; lactam 3-C) | 20 | 20 | 100 | 89800 | 10 | 10 |  |  | 
3 | CC(C)C[C@@H]1NC(=O)[C@@H](N(C)C(=O)[C@@H](NC(=O)[C@@H]2C[C@@H](F)CN2C(=O)C2(C(F)(F)F)CC(F)(F)C2)C2CC2)CCCCCCCN(C)C(=O)[C@H](Cc2cc(Cl)ccc2-c2ccc(N3C[C@@H](C)N(C)[C@@H](C)C3)cc2)N(C)C1=O [Example 384] ({cBuCO(3,3-F2-1-CF3)}-[Pro(trans-4-F)][Gly(cPr)][NMehhhLys(Me)]L[X47]; lactam 3-C) | 20 | 20 | 590 | 2210 | 10 | 10 |  |  | 
4 | CC(C)C[C@@H]1NC(=O)[C@@H](N(C)C(=O)[C@@H](NC(=O)[C@@H]2C[C@@H](F)CN2C(=O)C2(C(F)(F)F)CC(F)(F)C2)C2CC2)CCCCCCCN(C)C(=O)[C@H](Cc2cc(Cl)ccc2-c2ccc3c(c2)CN(C)CC3)N(C)C1=O [Example 406] ({cBuCO(3,3-F2-1-CF3)}-[Pro(trans-4-F)][Gly(cPr)][NMehhhLys(Me)]L[X49]; lactam 3-C) | 20 | 20 | 1780 | 3350 | 20 | 40 |  |  | 
5 | CC(C)C[C@@H]1NC(=O)[C@@H](N(C)C(=O)[C@@H](NC(=O)[C@@H]2C[C@@H](F)CN2C(=O)C2(C(F)(F)F)CC(F)(F)C2)C2CC2)C/C=C\CCCCN(C)C(=O)[C@H](Cc2cc(Cl)cnc2OC2CC2)N(C)C1=O [Example 258] | 70 | 20 | 120 | 14200 | 70 | 70 |  |  | 
6 | Cc1nnc(-c2ccc(Cl)cc2C[C@H]2C(=O)NCCCCCCC[C@H](N(C)C(=O)[C@@H](NC(=O)[C@@H]3C[C@@H](F)CN3C(=O)C3(C(F)(F)F)CC(F)(F)C3)C3CC3)C(=O)N[C@@H](CC(C)C)C(=O)N2C)o1 [Example 160] ({cBuCO(3,3-F2-1-CF3)}-[Pro(trans-4-F)][Gly(cPr)][NMe(hhhLys)]L[X44]; lactam 3-C) | 20 | 20 | 270 | 11500 | 20 | 20 |  |  | 
7 | COCCOCCN1CCN(c2ccc(-c3ccc(Cl)cc3C[C@H]3C(=O)N(C)CCCCCCC[C@H](N(C)C(=O)[C@@H](NC(=O)[C@@H]4C[C@@H](F)CN4C(=O)C4(C(F)(F)F)CC(F)(F)C4)C4CC4)C(=O)N[C@@H](CC(C)C)C(=O)N3C)cc2)CC1 [Example 356] ({cBuCO(3,3-F2-1-CF3)}-[Pro(trans-4-F)][Gly(cPr)][NMehhhLys(Me)]L[X3]; lactam 3-C) | 20 | 20 | 340 | 3430 | 10 | 10 |  |  | 
8 | COc1cc(-c2ccc(Cl)cc2C[C@H]2C(=O)N(C)CCCCCCC[C@H](N(C)C(=O)[C@@H](NC(=O)[C@@H]3C[C@@H](F)CN3C(=O)C3(C(F)(F)F)CC(F)(F)C3)C3CC3)C(=O)N[C@@H](CC(C)C)C(=O)N2C)ccc1N1CCOCC1 [Example 367] ({cBuCO(3,3-F2-1-CF3)}-[Pro(trans-4-F)][Gly(cPr)][NMehhhLys(Me)]L[X91]; lactam 3-C) | 20 | 20 | 1100 | 14700 | 20 | 10 |  |  | 
9 | CC(C)C[C@@H]1NC(=O)[C@@H](N(C)C(=O)[C@@H](NC(=O)[C@@H]2C[C@@H](F)CN2C(=O)C2(Cl)CC2)C2CC2)CCCCCCCN(C)C(=O)[C@H](Cc2cc(Cl)ccc2-c2ccc(N3CCOCC3)cc2)N(C)C1=O [Example 398] (X20-[Pro(trans-4-F)][Gly(cPr)][NMehhhLys(Me)]L[NMePhe(2-(4-MorPh),5-Cl)]; lactam 3-C) | 20 | 20 | 590 | 3640 | 140 | 190 |  |  | 
10 | CC(C)C[C@@H]1NC(=O)[C@@H](N(C)C(=O)[C@@H](NC(=O)[C@@H]2C[C@@H](F)CN2C(=O)C2(C(F)(F)F)CC(F)(F)C2)C2CC2)CCCCCCCN(C)C(=O)[C@H](Cc2cc(Cl)ccc2-c2ccc([C@@H]3CCCN(C)C3)cc2)N(C)C1=O [Example 411] ({cBuCO(3,3-F2-1-CF3)}-[Pro(trans-4-F)][Gly(cPr)][NMehhhLys(Me)]L[X70]; lactam 3-C) | 20 | 20 | 760 | 1610 | 10 | 10 |  |  | 
11 | CC(C)C[C@@H]1NC(=O)[C@@H](N(C)C(=O)[C@@H](NC(=O)[C@@H]2C[C@@H](F)CN2C(=O)C2(C(F)(F)F)CC(F)(F)C2)C2CC2)CCCCCCCN(C)C(=O)[C@H](Cc2cc(Cl)ccc2-c2ccc(N3CCN(C4CN(C)C4)CC3)cc2)N(C)C1=O [Example 383, (2S,4R)—N—((S)-2-(((3S,6S,9S)-3-((4-chloro-4′-(4-(1-methylazetidin-3-yl)piperazin-1-yl)-[1,1′-biphenyl]-2-yl)methyl)-6-isobutyl-1,4-dimethyl-2,5,8-trioxo-1,4,7-triazacyclohexadecan-9-yl)(methyl)amino)-1-cyclopropyl-2-oxoethyl)-1-(3,3-difluoro-1-(trifluoromethyl)cyclobutane-1-carbonyl)-4-fluoropyrrolidine-2-carboxamide] ({cBuCO(3,3-F2-1-CF3)}-[Pro(trans-4-F)][Gly(cPr)][NMehhhLys(Me)]L[X34]; lactam 3-C) | 20 | 20 | 530 | 2700 | 10 | 10 |  |  | 
12 | CC(C)C[C@@H]1NC(=O)[C@@H](N(C)C(=O)[C@@H](NC(=O)[C@@H]2C[C@@H](F)CN2C(=O)C(C)(F)C(F)(F)F)C2CC2)CCCCCCCN(C)C(=O)[C@H](Cc2cc(Cl)ccc2-c2ccc(N3CCOCC3)cc2)N(C)C1=O (stereo partly drawn) [Example 377] (X77-[Pro(trans-4-F)][Gly(cPr)][NMehhhLys(Me)]L[NMePhe(2-(4-MorPh),5-Cl)]; lactam 3-C) | 20 | 20 | 340 | 8160 | 10 | 10 |  |  | 
13 | CC(C)C[C@@H]1NC(=O)[C@@H](N(C)C(=O)[C@@H](NC(=O)[C@@H]2C[C@@H](F)CN2C(=O)C2(C(F)(F)F)CC(F)(F)C2)C2CC2)CCCCCCCN(C)C(=O)[C@H](Cc2cc(Cl)ccc2-c2cnc3c(c2)ncn3C)N(C)C1=O [Example 177] ({cBuCO(3,3-F2-1-CF3)}-[Pro(trans-4-F)][Gly(cPr)][NMehhhLys(Me)]L[X116]; lactam 3-C) | 20 | 20 | 460 | 8960 | 10 | 10 |  |  | 
14 | CCOc1ncc(Cl)cc1C[C@H]1C(=O)N(C)CCCCCCC[C@H](N(C)C(=O)[C@@H](NC(=O)[C@@H]2C[C@@H](F)CN2C(=O)C2(C(F)(F)F)CCC2)C2CC2)C(=O)N[C@@H](CC(C)C)C(=O)N1C [Example 227] ({Cyclobutanecarbonyl(1-CF3)}-[Pro(trans-4-F)][Gly(cPr)][NMehhhLys(Me)]L[X25]; lactam 3-C) |  |  |  | 14100 | 20 | 40 | 30 | 20 | 120
15 | CC(C)C[C@@H]1NC(=O)[C@@H](N(C)C(=O)[C@@H](NC(=O)[C@@H]2C[C@@H](F)CN2C(=O)C2(C(F)(F)F)CC(F)(F)C2)C2CC2)CC=CCCCCNC(=O)[C@H](Cc2cc(Cl)ccc2-c2cnn(C3CC3)c2)N(C)C1=O [Example 189] | 50 | 20 | 850 | 3670 | 130 | 80 |  |  | 
16 | COCCn1cc(-c2ccc(Cl)cc2C[C@H]2C(=O)NCCCCC=CC[C@H](N(C)C(=O)[C@@H](NC(=O)[C@@H]3C[C@@H](F)CN3C(=O)C3(C(F)(F)F)CC(F)(F)C3)C3CC3)C(=O)N[C@@H](CC(C)C)C(=O)N2C)cn1 [Example 43] | 40 | 20 | 370 | 8570 | 30 | 40 |  |  | 
17 | CCN(C(=O)[C@@H](NC(=O)[C@@H]1C[C@@H](F)CN1C(=O)[C@@]1(C(F)(F)F)CCCCO1)C1CC1)[C@H]1CCCCCCCN(C)C(=O)[C@H](Cc2cc(Cl)cnc2OC2CC2)N(C)C(=O)[C@H](CC(C)C)NC1=O [Example 221] |  |  |  | 16600 | 20 | 30 | 60 | 20 | 180
